Results: US20230391881A1, “COMPOSITIONS AND METHODS FOR OVERCOMING DR5-INDUCED IMMUNE EVASION BY SOLID TUMORS” (University of Virginia Patent Foundation, priority 2020, published 2023)

Columns and labels:
Assay type in all cases: in vivo, mouse
[1] = tested on: chi-G4S-DR5 stable 4T1 tumors; experiment: Immunoblotting of Chi-G4S-DR5 stable 4T1 tumor lysates (granzyme-b, Foxp3); conditions: size matched tumors, 6 total doses (FIG. 6D)
[2] = tested on: chi-G4S-DR5 stable MC38 tumors; experiment: Immunoblotting of Chi-G4S-DR5 stable MC38 tumor lysates (granzyme-b); conditions: size matched tumors, 6 total doses (FIG. 18A)
4T1 tumors = experiment: Tumor regression in 4T1 syngeneic TNBC tumor models; conditions: antibodies i.p., similar dose (FIGS. 6I and 6J)
Experimental: FIGS. 4A-4K. DR5 agonist activated ROCK1 functions to help PD-L1 surface mobilization. (FIGS. 4A and 4B) KMTR2 and lexatumumab treated MDA-MB-436 and OVCAR3 (respectively) lysates for indicated early time points were analyzed for caspase-8, caspase-3, ROCK1, pMLC, PARP, PD-L1 and CMTM6 etc. as indicated. Vertical arrows indicate sequential kinetics of caspase-8, ROCK1, and caspase-3 activation, arrows with “n.s.” below them indicate nonspecific band by ROCK1 antibody. (FIG. 4C) OVCAR3 cells were treated with pMLC activating ionophore A23187 (positive control) and lexatumumab ±ROCK1 inhibitors or ±rDR5 or ±rFOLR1. Lysates were later analyzed for ROCK1, pMLC, caspase-3 and PARP with GAPDH as loading control. (FIG. 4D) MDA-MB-436 and OVCAR3 cells were treated with indicated ROCK1 inhibitors 2 hours prior to DR5 agonist KMTR2 treatment. After 4 hours flow cytometry was used to analyze surface PD-L1. […] Relative luciferase signal was quantified and plotted after subtraction of background signal from untreated cells. […] Tumor volumes were quantified at indicated days by caliper measurements. […] Statistical significance in FIG. 4J was determined by unpaired student t-test and in FIG. 4K using two-tailed […] Wilcoxon Mann-Whitney test. […]
FIGS. 6A-6M. […] CD8/CD45 and CD4/CD45 expressing cells were measured by flow cytometry. […] Harvested tumors homogenized followed by quantitation. […]

Substance: avelumab: clinical anti-PD-L1 antibody (human/mouse cross-reactive); VL and VH SEQ ID NOs: 9 and 10
- granzyme-b activity in tumors compared to DR5 agonist alone [1]: significantly higher granzyme-b activity
- granzyme-b activity in tumors compared to DR5 agonist alone [2]: significantly higher granzyme-b activity
- tumor regression (4T1 tumors): only stabilized the tumors
